Source: ChEMBL document CHEMBL6178004, “Novel Azaindole Compounds as Phosphodiesterase 4B Inhibitors for Treating Immune-Inflammatory Diseases or Disorders” (ACS Med Chem Lett, 2025)

Legend:
[1] = target: 3',5'-cyclic-AMP phosphodiesterase 4D (Homo sapiens, UniProt Q08499); experiment: Inhibition of human recombinant PDE4D3 using [3H]cAMP as substrate incubated for 30 mins by scintillation proximity assay; assay type: single protein
[2] = target: 3',5'-cyclic-AMP phosphodiesterase 4B (Homo sapiens, UniProt Q07343); experiment: Inhibition of human recombinant PDE4B1 using [3H]cAMP as substrate incubated for 30 mins by scintillation proximity assay
Chain of 3',5'-cyclic-AMP phosphodiesterase 4B (Q07343 whole entry): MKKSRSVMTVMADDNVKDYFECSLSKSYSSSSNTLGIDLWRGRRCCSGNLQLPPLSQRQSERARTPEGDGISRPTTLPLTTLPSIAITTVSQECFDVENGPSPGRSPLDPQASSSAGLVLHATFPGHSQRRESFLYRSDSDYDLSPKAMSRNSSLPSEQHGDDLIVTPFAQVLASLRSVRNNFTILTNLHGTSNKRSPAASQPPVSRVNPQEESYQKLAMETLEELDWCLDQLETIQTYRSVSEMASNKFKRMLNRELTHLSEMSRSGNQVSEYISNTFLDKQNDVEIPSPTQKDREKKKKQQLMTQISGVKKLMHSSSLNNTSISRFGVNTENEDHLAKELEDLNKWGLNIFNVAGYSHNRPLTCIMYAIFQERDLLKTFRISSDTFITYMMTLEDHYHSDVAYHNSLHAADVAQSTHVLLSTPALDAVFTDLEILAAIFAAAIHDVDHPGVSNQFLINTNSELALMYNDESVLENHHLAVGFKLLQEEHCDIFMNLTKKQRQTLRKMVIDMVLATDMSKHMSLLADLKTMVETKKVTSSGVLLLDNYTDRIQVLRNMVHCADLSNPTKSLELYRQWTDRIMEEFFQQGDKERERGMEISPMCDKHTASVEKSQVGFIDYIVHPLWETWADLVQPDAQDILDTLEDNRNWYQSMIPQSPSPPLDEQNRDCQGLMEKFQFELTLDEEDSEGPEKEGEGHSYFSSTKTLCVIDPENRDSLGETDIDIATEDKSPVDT

Chain of 3',5'-cyclic-AMP phosphodiesterase 4D (Q08499 whole entry): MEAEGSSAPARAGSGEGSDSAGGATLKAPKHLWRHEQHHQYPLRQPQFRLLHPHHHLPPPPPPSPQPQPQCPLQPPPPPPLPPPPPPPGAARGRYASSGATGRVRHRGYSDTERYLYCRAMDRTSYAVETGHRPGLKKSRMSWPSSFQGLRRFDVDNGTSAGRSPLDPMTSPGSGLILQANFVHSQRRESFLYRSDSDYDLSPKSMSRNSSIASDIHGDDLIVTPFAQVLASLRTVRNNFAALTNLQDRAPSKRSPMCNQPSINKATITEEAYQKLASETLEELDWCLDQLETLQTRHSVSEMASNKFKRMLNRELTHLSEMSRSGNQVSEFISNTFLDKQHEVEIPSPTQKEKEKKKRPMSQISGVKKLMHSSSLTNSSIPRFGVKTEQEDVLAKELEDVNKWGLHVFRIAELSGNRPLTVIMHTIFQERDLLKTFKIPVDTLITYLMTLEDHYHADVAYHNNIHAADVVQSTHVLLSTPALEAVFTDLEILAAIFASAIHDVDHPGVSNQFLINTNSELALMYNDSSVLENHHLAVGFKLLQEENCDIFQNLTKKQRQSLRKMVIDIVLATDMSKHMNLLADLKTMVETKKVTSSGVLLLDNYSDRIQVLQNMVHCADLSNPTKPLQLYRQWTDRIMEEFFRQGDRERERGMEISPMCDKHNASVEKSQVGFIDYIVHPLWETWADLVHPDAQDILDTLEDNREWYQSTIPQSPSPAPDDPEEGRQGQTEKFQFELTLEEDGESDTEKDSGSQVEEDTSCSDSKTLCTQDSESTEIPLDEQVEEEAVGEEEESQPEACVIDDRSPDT

**Q.** Which results are given for COc1ccc(-c2c3n(c4cc(F)cnc24)C[C@H](CO)N(C2CC2)C3=O)cn1?
**A.** IC50 [1]: 10 nM; IC50 [2]: < 10 nM

**Q.** O=C1c2c(-c3ccc(Cl)c(F)c3)c3ncccc3n2C[C@H](CO)N1C1CC1 was tested. Which IC50 [1] did it give?
**A.** 10 nM

**Q.** What about the IC50 [2] of the same compound?
**A.** < 10 nM

**Q.** Which IC50 [1] does the source give for O=C1c2c(-c3ccc(F)c(F)c3)c3ncccc3n2C[C@@H](CO)N1C1CC1 here?
**A.** 10 nM

**Q.** And the IC50 [2]?
**A.** < 10 nM

**Q.** For N#Cc1ccc(-c2c3n(c4cccnc24)C[C@@H](CO)N(C2CC2)C3=O)cc1F, which IC50 [1] is on record?
**A.** 10 nM

**Q.** And the IC50 [2]?
**A.** < 10 nM

**Q.** For O=C1c2c(-c3ccc(Cl)c(F)c3)c3ncccc3n2CCN1CCO, which IC50 [1] is on record?
**A.** 10 nM

**Q.** What about the IC50 [2] of the same compound?
**A.** < 10 nM

**Q.** What does the source list for C[C@@H]1Cn2c(c(-c3ccc(Cl)c(F)c3)c3ncccc32)C(=O)N1CCO?
**A.** IC50 [1]: < 10 nM; IC50 [2]: < 10 nM
